The results in this text go back to patent US20050059588A1, “Peptides which generate antibodies resulting in lysis of pathologically adherent erythrocytes” (REGENTS OF THE UNIVERSITY OF CALIFORNIA, priority 2003, published 2005).

The target in data set [1] is T1, CD36 transfected CHO cells (Homo sapiens, UniProt P16671).
T1 construct: expressed in transfected cells; host or cells: CHO cells
As to the kind of experiment: Interaction of biotin labeled DBR peptide with CD36 transfected CHO cells. The format is binding. As to conditions: 40 μg/ml biotin labeled peptide, 1 hour at 37° C. Here is the method:
FIG. 2. Interaction of DBR peptide with CD36 transfected CHO cells. Cells were incubated for 1 hour at 37° C. with 40 μg/ml biotin labeled peptide, followed by 20 μg/ml Alexa-conjugated streptavidin.
To confirm that the DIDS binding region (DBR) of AE1 is involved in IE adhesion, two different kinds of in vitro assays were carried out.

Data set [2] concerns the target T2, CD36 (Homo sapiens, UniProt P16671).
T2 construct: Partially purified CD36 (CD36 fraction) was obtained from human platelets; from tissue; host or cells: human platelets
Description: Competitive binding assay: inhibition of IE binding to immobilized CD36 by DBR peptide. In kind it is cell-based. Particulars: immobilized CD36 incubated with peptide before cytoadherence assay. The method, then: FIG. 3. […] Immobilized CD36 was incubated with the indicated concentrations of DBR peptide, and then a cytoadherence assay was conducted as shown in the legend of Table 1. Each value represents the mean ±SD of triplicate determinations.
Partially purified CD36 (CD36 fraction) was obtained from human platelets essentially by the method of Tandon et al., J. Biol Chem, 264:7570 (1989). However, the last purification step, using Ultrogel AcA-44, was omitted. TSP was purified as described in Layler et al., J Biol Chem, 253:8609 (1978). To remove excess amount of Triton X-100 in CD36 solution, 5 ml of a CD36 solution containing 0.1% Triton X-100 (initial concentration 268 μg protein/ml) was incubated with 0.5 g of SM-2 beads (Bio-Rad, Hercules, Calif.) at room temperature for 2 h and dialyzed against 500 ml of distilled water. Five microliters of the dialyzed solution was mounted onto multi-well glass slides, and incubated at 4° C. overnight. To immobilize TSP, 5 μl of TSP solution (50 μg/ml in 50 mM Bis-Tris, 100 mM NaCl, 25 mM calcium lactate, pH 7.4 (BTC)) was spotted on plastic slides (Permanox® plastic, Nunc, Neperville, Ill.) and incubated at 4° C. overnight. […]
Cytoadherence assays were performed as described in Crandall et al., Exp Parasitol, 73:362 (1991) (“Crandall 1991”). […] The number of bound infected red cells/mm^2 area of immobilized protein was counted by light microscopy.

Data set [3] concerns immunoglobulins from individuals living in a malaria endemic region. As to the kind of experiment: ELISA: binding of IE-surface-eluted human immunoglobulins to immobilized DBR peptide. Particulars: surface bound immunoglobulins eluted from IEs. The method, then: FIG. 4. Recognition of the DBR peptide by immunoglobulins from individuals living in a malaria endemic region (“immunes”). Human sera from either control or “immunes” were added to human erythrocytes infected with P. falciparum (“IEs”) and after incubation, the surface bound immunoglobulins were eluted using isotonic glycine buffer pH 3.0. Biotin labeled peptides were immobilized on 96 well plates using streptavidin, and the specific binding of the surface eluted immunoglobulins to the peptides was determined using alkaline phosphatase conjugated anti-human IgG.
To explore whether DBR is exposed as a consequence of parasite development, sera from individuals living in a region where malaria is endemic or from a control group was incubated with intact live IEs and the surface bound immunoglobulins eluted by a low pH treatment.

The nature of data set [4]: Tolerability in animals immunized with the peptide. In kind it is in vivo, rabbit.
Data set [5] deals with CD36. As to the kind of experiment: Cytoadherence assay: binding of infected erythrocytes made from AE1-modified erythrocytes to immobilized CD36. In kind it is cell-based, human. Particulars: for binding of treated IEs to CD36, in words: immobilized CD36; for percentage of bound IEs/mm^2 as compared to untreated cells, CD36: uninfected erythrocytes treated (0.5 mg/ml chymotrypsin, 100 μM DIDS or 0.25 mg/ml FMA), then infected, harvested after 40 hr, mean ±SD of triplicate. Here is the method: (§1) Uninfected erythrocytes were treated with either 0.25 mg/ml fluorescein maleimide (FMA) (1 hr at 25° C.), 100 μM DIDS (1 hr at 37° C.) or with 0.5 mg/ml chymotrypsin (0.5 hr at 37° C.). Modified erythrocytes were infected and after 40 hr, mature stages were harvested and a standard cytoadherence assay using CD36 or TSP immobilized on slides was carried out. The numbers are the percentage of bound IEs/mm^2 as compared to untreated cells. Each value represents the mean ±SD of triplicate determinations.
(§2) Partially purified CD36 (CD36 fraction) was obtained from human platelets essentially by the method of Tandon et al., J. Biol Chem, 264:7570 (1989). However, the last purification step, using Ultrogel AcA-44, was omitted. TSP was purified as described in Layler et al., J Biol Chem, 253:8609 (1978). To remove excess amount of Triton X-100 in CD36 solution, 5 ml of a CD36 solution containing 0.1% Triton X-100 (initial concentration 268 μg protein/ml) was incubated with 0.5 g of SM-2 beads (Bio-Rad, Hercules, Calif.) at room temperature for 2 h and dialyzed against 500 ml of distilled water. Five microliters of the dialyzed solution was mounted onto multi-well glass slides, and incubated at 4° C. overnight. To immobilize TSP, 5 μl of TSP solution (50 μg/ml in 50 mM Bis-Tris, 100 mM NaCl, 25 mM calcium lactate, pH 7.4 (BTC)) was spotted on plastic slides (Permanox® plastic, Nunc, Neperville, Ill.) and incubated at 4° C. overnight. After removal of the solution by gentle aspiration, CD36- and TSP-immobilized spots were blocked with 1% BSA in phosphate buffered saline (PBS) at room temperature for 1 h.
(§3) Cytoadherence assays were performed as described in Crandall et al., Exp Parasitol, 73:362 (1991) (“Crandall 1991”). In the case of inhibition assay using peptides, the spots of immobilized protein were pretreated with 10 μl of peptide solution (200 μg/ml) in Bis-Tris buffer (50 mM Bis-Tris, 100 mM NaCl, 2 mM CaCl2, pH 6.6 for CD36; 50 mM Bis-Tris, 100 mM NaCl, 2 mM CaCl2, pH 7.4 for 677 cells; BTC for TSP) at 37° C. for 1 h. After removal of the peptide solution, the slides were placed in individual compartments of a partitioned plastic box containing 7 ml Bis-Tris buffer. Fifty microliters of packed red cells (5-10% parasitemia) was added to each compartment of the plastic box. After incubation at 37° C. for 90 min with gentle rocking, the red cell suspension was carefully aspirated. The slides were rinsed by adding 7 ml of the buffer and 5 min of rocking after which time the buffer was aspirated. The slides were washed three times, fixed, and stained as described in Crandall 1991. The number of bound infected red cells/mm^2 area of immobilized protein was counted by light microscopy.

Another data set deals with TSP. As to the kind of experiment: Cytoadherence assay: binding of infected erythrocytes made from AE1-modified erythrocytes to immobilized TSP. The format is cell-based. As to conditions: for binding of treated IEs to TSP, in words: immobilized TSP; for percentage of bound IEs/mm^2 as compared to untreated cells, TSP: uninfected erythrocytes treated (0.5 mg/ml chymotrypsin, 100 μM DIDS or 0.25 mg/ml FMA), then infected, harvested after 40 hr, mean ±SD of triplicate. Here is the method: as §1, §2, §3

T2 sequence (P16671 whole entry): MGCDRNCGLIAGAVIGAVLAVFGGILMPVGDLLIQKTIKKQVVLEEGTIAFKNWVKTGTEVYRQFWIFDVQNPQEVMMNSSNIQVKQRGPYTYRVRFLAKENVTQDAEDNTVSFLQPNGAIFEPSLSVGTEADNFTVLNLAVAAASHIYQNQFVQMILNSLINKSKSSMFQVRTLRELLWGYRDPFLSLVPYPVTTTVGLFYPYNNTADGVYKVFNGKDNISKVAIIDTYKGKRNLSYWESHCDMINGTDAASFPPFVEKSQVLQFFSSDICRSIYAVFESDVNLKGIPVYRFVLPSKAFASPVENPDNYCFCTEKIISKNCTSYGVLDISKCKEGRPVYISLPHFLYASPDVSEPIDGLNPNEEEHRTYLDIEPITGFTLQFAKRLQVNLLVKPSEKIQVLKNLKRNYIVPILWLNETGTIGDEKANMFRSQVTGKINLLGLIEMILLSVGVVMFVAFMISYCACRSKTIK
T1 sequence (P16671 whole entry): as above

With YETFSKLIKIFQDH [DBR peptide], the “interaction with CD36 transfected CHO cells” value in data set [1] is “interacted with high affinity and specificity”. Besides, the “inhibition of IE binding to immobilized CD36” value was “Concentration dependent inhibition” with CD36 [2] and “inhibited the binding” with CD36 [2] (listed as DBR peptides). Besides, the “recognition of the DBR by immunoglobulins of individuals living in an endemic area” value in data set [3] is “strong humoral immune response”. Moreover, the “anemia or other ill effects in immunized animals” value in data set [4] is recorded as “no anemia or other ill effects”.

Take `O=S(=O)(O)c1cc(N=C=S)ccc1C=Cc1ccc(N=C=S)cc1S(=O)(=O)O` [DIDS, 4,4′-diisothiocyanatostilbene-2,2′-disulfonic acid]: in the data set with CD36 [5], the “binding of treated IEs to CD36, in words” value is on record as “lower binding to CD36” and the “percentage of bound IEs/mm^2 as compared to untreated cells, CD36” value was 33.2 ± 4.1 percentage. In the data set on TSP, the “binding of treated IEs to TSP, in words” value was “not to TSP” and the “percentage of bound IEs/mm^2 as compared to untreated cells, TSP” value worked out at 93.5 ± 35.9 percentage.

As for Chymotrypsin, in the data set on CD36 [5], the “binding of treated IEs to CD36, in words” value is reported as “significant reduction” and the “percentage of bound IEs/mm^2 as compared to untreated cells, CD36” value is 10.2 + 17.5 percentage. In the data set on TSP, the “binding of treated IEs to TSP, in words” value is given as “largely unaffected” and the “percentage of bound IEs/mm^2 as compared to untreated cells, TSP” value turned out to be 81.0 ± 17.7 percentage.

On to `O=C1OC2(c3ccc(O)cc3Oc3cc(O)ccc32)c2ccc(N3C(=O)C=CC3=O)cc21` [FMA, Fluorescein maleimide], for which, in the data set with CD36 [5], the “binding of treated IEs to CD36, in words” value was “did not reduce the binding” and the “percentage of bound IEs/mm^2 as compared to untreated cells, CD36” value came out at 135.1 ± 12.9 percentage. In addition, in the data set on TSP, the “binding of treated IEs to TSP, in words” value was “did not reduce the binding” and the “percentage of bound IEs/mm^2 as compared to untreated cells, TSP” value stood at 180.9 ± 26.0 percentage.
